Patent US20120015919A1, “THERAPIES FOR TREATING CANCER USING COMBINATIONS OF COX-2 INHIBITORS AND AROMATASE INHIBITORS OR COMBINATIONS OF COX-2 INHIBITORS AND ESTROGEN RECEPTOR ANTAGONISTS” (Tragara Pharmaceuticals, Inc., priority 2007, published 2012)

Details: human, in vivo

Question: For `CCOc1ccc(-c2cc(C)cn2-c2ccc(S(N)(=O)=O)cc2)cc1` [2-(4-ethoxyphenyl)-4-methyl-1-(4-sulfamoylphenyl)-pyrrole], which “gastric or duodenal toxicity compared to placebo” value is on record?
Answer: Its value is “no increase”.
